Source: patent publication US20150297594A1, “Combination of a 6-oxo-1,6-dihydro-pyridazine derivative having anti-cancer activity with a MEK inhibitor” (MERCK PATENT GMBH, priority 2012, published 2015)
“And” between values parts separate entries of the source, which are not always exact repeats. Equal values may be shown once.

Assays:
[1] = system: human KP-4 pancreatic tumor cells; test: human KP-4 pancreatic tumor xenograft model in nude mice; type: in vivo; settings: female BalBc nude mice, s.c. KP-4 tumors, 5 days on and 2 days off, end of treatment
Method: Method: Female BalBc nude mice (6-8 week old) where subcutaneously injected with human KP-4 pancreatic tumor cells and were divided into treatment groups (ten animals in one group) after the tumors were established.
Respective groups were administered orally with the 3-(1-{3-[5-(1-methyl-piperidin-4-ylmethoxy)-pyrimidin-2-yl]-benzyl}-6-oxo-1,6-dihydro-pyridazin -3-yl)-benzonitrile hydrochloride hydrate (100 mg/kg) or N-((S)-2,3-dihydroxy-propyl)-3-(2-fluoro-4-iodo-phenylamino)-isonicotinamide (50 mg/kg) for 5 days on and 2 days off in monotherapy or in combination. […] Statistical analysis has been done with one way ANOVA.

[2] = system: patient derived pancreatic tumor fragment; test: 10 patient derived pancreatic tumor models in nude mice; type: in vivo, human
Protocol: Combination with MEK inhibitor N-((S)-2,3-dihydroxy-propyl)-3-(2-fluoro-4-iodo-phenylamino)-isonicotinamide in 10 patient derived pancreatic tumor models:
Method: Female NMRI nude mice (6-8 week old) where subcutaneously implanted with a patient derived pancreatic tumor fragment. Animals were divided into treatments groups (ten animals in one group) after the tumors were established. Respective groups were administered orally with the 3-(1-{3-[5-(1-methyl-piperidin-4-ylmethoxy)-pyrimidin-2-yl]-benzyl}-6-oxo -1,6-dihydro-pyridazin-3-yl)-benzonitrile hydrochloride hydrate (100 mg/kg) or N-((S)-2,3-dihydroxy-propyl)-3-(2-fluoro-4-iodo-phenylamino)-isonicotinamide (100 mg/kg, MTD) for 5 days on and 2 days off in monotherapy or in combination. At the end of treatment TC values were calculated and tumor regrowth was observed. Statistical analysis has been done with one way ANOVO. […] All treatments were well tolerated.

Row | Structure (SMILES) | TC value ([1]; monotherapy 100 mg/kg orally) [%] | TC values ([2]; female NMRI nude mice; monotherapy 100 mg/kg orally, 5 days on and 2 days off; end of treatment; the models with anti-tumor activity; hydrochloride hydrate)) | TC value ([1]; monotherapy 50 mg/kg orally) [%] | TC values ([2]; female NMRI nude mice, monotherapy 100 mg/kg (MTD) orally, 5 days on and 2 days off, end of treatment, all 10 models) [%] | models with anti-tumor activity ([2]; female NMRI nude mice, monotherapy 100 mg/kg orally, 5 days on and 2 days off, out of 10 models)
1 | CN1CCC(COc2cnc(-c3cccc(Cn4nc(-c5cccc(C#N)c5)ccc4=O)c3)nc2)CC1.Cl.O [3-(1-{3-[5-(1-methyl-piperidin-4-ylmethoxy)-pyrimidin-2-yl]-benzyl}-6-oxo-1,6-dihydro-pyridazin-3-yl)-benzonitrile hydrochloride hydrate] | 35 | 43% and 50% | – | – | –
2 | O=C(NC[C@H](O)CO)c1ccncc1Nc1ccc(I)cc1F [N-((S)-2,3-dihydroxy-propyl)-3-(2-fluoro-4-iodo-phenylamino)-isonicotinamide] | – | – | 42 | < 55 | 10
